{
  "source": "patent US7064144B2",
  "about": "“Imidazole derivatives as adenosine deaminase inhibitors” (Astellas Pharma Inc., priority 2001, dated 2006)",
  "data": [
    {"system": "not given", "assay": "not given", "conditions": "not given", "values": [
      {"smiles": "C[C@H](O)[C@H](CSc1cccc2ccccc12)n1cnc(C(N)=O)c1.Cl", "melting point": "> 168 °C (dec.)"},
      {"smiles": "C[C@H](O)[C@@H](CCOc1ccc(-c2ccccc2)cc1)n1cnc(C(N)=O)c1", "note": "[Example 28, 1-[(2S,3R)-5-(1,1′-biphenyl-4-yloxy)-2-hydroxy-3-pentyl]imidazole-4-carboxamide]", "melting point": "191 to 193 °C"},
      {"smiles": "C[C@H](O)[C@@H](CCOc1ccc2c(ccn2C)c1)n1cnc(C(N)=O)c1", "note": "[Example 75, 1-[(2S,3R)-2-hydroxy-5-(1-methyl-1H-indol-5-yloxy)-3-pentyl]imidazole-4-carboxamide]", "melting point": "211 to 213.5 °C"},
      {"smiles": "C[C@H](O)[C@@H](COc1ccc(Cl)c(Cl)c1)n1cnc(C(N)=O)c1", "note": "[Example 81, 1-{(1R,2S)-1-[(3,4-dichlorophenoxy)methyl]-2-hydroxypropyl}-1H-imidazole-4-carboxamide]", "melting point": "115 to 121 °C"},
      {"smiles": "C[C@H](O)[C@@H](CCOc1cccc(-c2ccc(Cl)nc2)c1)n1cnc(C(N)=O)c1", "note": "[Example 87, 1-{(2S,3R)-5-[3-(6-chloro-3-pyridyl)phenoxy]-2-hydroxy-3-pentyl}imidazole-4-carboxamide]", "melting point": "166 to 168 °C"},
      {"smiles": "C[C@H](O)[C@@H](CCOc1ccc2ccc(Cl)cc2c1)n1cnc(C(N)=O)c1", "note": "[Example 97, 1-[(2S,3R)-5-(7-chloro-2-naphthyloxy)-2-hydroxy-3-pentyl]imidazole-4-carboxamide]", "melting point": "139 to 141 °C"},
      {"smiles": "C[C@H](O)[C@H](CSc1ccc2ccccc2c1)n1cnc(C(N)=O)c1", "note": "[Example 102, 1-{(1R,2S)-2-hydroxy-1-[(2-naphthylthio)methyl]propyl}-1H-imidazole-4-carboxamide]", "melting point": "> 108 °C (dec.)"},
      {"smiles": "C[C@H](O)[C@H](CSc1cccc(Cl)c1Cl)n1cnc(C(N)=O)c1", "note": "[Example 104, 1-{(1R,2S)-1-{[(2,3-dichlorophenyl)thio]methyl}-2-hydroxypropyl}-1H-imidazole-4-carboxamide]", "melting point": "> 120 °C (dec.)"}
    ]},
    {"molecular_target": "T1, Human ADA (Homo sapiens, UniProt P00813)", "T1 construct": "made in house", "T1 sequence (P00813 1-363)": "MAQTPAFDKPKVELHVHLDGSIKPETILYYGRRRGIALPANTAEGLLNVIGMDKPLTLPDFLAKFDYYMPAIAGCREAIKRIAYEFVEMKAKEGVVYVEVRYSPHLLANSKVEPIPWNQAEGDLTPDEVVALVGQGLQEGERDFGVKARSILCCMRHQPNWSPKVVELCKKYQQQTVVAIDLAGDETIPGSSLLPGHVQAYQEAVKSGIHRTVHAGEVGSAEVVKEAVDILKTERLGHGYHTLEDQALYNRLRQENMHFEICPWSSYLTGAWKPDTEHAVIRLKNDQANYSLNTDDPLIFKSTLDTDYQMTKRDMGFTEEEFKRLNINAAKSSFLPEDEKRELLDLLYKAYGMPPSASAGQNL", "assay": "Adenosine Deaminase (ADA) Enzyme Assay", "assay_type": "biochemical", "conditions": "50% inhibition of Vmax vs vehicle; 0.16 μg/ml ADA, 0.1 mM adenosine, 10 mM phosphate buffer saline pH 7.4, room temperature, A265", "from_the_text": "Adenosine Deaminase (ADA) Enzyme Assay\n• 1-[(2S,3R)-5-(1,1′-biphenyl-3-yloxy)-2-hydroxy-3-pentyl]imidazole-4-carboxamide (Example 20) • 1-{(2S,3R)-2-hydroxy-5-[3-(2-thienyl)phenoxy]-3-pentyl}imidazole-4-carboxamide (Example 32) • 1-[(2S,3R)-2-hydroxy-5-(2-quinolyloxy)-3-pentyl]imidazole-4-carboxamide (Example 49) • 1-[(2S,3R)-2-hydroxy-5-(2-naphthylthio)-3-pentyl]imidazole-4-carboxamide (Example 76) • 1-[(2S,3R)-2-hydroxy-5-(2-quinolylthio)-3-pentyl]imidazole-4-carboxamide (Example 78) Test Method:\nThe reaction velocity (V) is measured by a change in absorbance at 265 nm (A265) resulting from the deamination of adenosine. Human ADA was expressed and purified from ADA-deficient bacterial strain. Reaction mixtures of a total volume of 200 μl contained 0.16 μg/ml of ADA and 0.1 mM of adenosine and test compound in 10 mM phosphate buffer saline (pH 7.4). The reaction was started by addition of ADA to a mixture of adenosine and test compound. The reaction was followed at room temperature by recording decrease in A265 for 3 minutes in SPECTRAmax 250 (Molecular Devices, USA) to automatically calculate Vmax. Inhibitory potency of test compound was expressed as IC50 value, the drug concentration required to produce 50% inhibition of Vmax in comparison to vehicle treatment.", "units": {"IC50": "nM"}, "values": [
      {"smiles": "C[C@H](O)[C@@H](CCOc1cccc(-c2ccccc2)c1)n1cnc(C(N)=O)c1", "note": "[Example 20, 1-[(2S,3R)-5-(1,1′-biphenyl-3-yloxy)-2-hydroxy-3-pentyl]imidazole-4-carboxamide]", "IC50": "< 20"},
      {"smiles": "C[C@H](O)[C@@H](CCOc1cccc(-c2cccs2)c1)n1cnc(C(N)=O)c1", "note": "[Example 32, 1-{(2S,3R)-2-hydroxy-5-[3-(2-thienyl)phenoxy]-3-pentyl}imidazole-4-carboxamide]", "IC50": "< 20"},
      {"smiles": "C[C@H](O)[C@@H](CCOc1ccc2ccccc2n1)n1cnc(C(N)=O)c1", "note": "[Example 49, 1-[(2S,3R)-2-hydroxy-5-(2-quinolyloxy)-3-pentyl]imidazole-4-carboxamide]", "IC50": "< 20"},
      {"smiles": "C[C@H](O)[C@@H](CCSc1ccc2ccccc2c1)n1cnc(C(N)=O)c1", "note": "[Example 76, 1-[(2S,3R)-2-hydroxy-5-(2-naphthylthio)-3-pentyl]imidazole-4-carboxamide]", "IC50": "< 20"},
      {"smiles": "C[C@H](O)[C@@H](CCSc1ccc2ccccc2n1)n1cnc(C(N)=O)c1", "note": "[Example 78, 1-[(2S,3R)-2-hydroxy-5-(2-quinolylthio)-3-pentyl]imidazole-4-carboxamide]", "IC50": "< 20"}
    ]}
  ]
}
